Reference: patent US7786097B2, “Tricyclic compounds, compositions and methods” (Pfizer Inc., priority 2007, dated 2010)
Structures can show the parent of a compound that is named as a salt. Where two headings read alike, the source gives them in different places. One block for each compound: values may come before it.

Tests used:
[1] = target: T1, full-length glucocorticoid (GR) protein (Homo sapiens, UniProt P04150); assay: Glucocorticoid receptor fluorescence polarization ligand binding (GRFP) assay
T1 construct: purchased Invitrogen
T1 sequence (P04150 1-777): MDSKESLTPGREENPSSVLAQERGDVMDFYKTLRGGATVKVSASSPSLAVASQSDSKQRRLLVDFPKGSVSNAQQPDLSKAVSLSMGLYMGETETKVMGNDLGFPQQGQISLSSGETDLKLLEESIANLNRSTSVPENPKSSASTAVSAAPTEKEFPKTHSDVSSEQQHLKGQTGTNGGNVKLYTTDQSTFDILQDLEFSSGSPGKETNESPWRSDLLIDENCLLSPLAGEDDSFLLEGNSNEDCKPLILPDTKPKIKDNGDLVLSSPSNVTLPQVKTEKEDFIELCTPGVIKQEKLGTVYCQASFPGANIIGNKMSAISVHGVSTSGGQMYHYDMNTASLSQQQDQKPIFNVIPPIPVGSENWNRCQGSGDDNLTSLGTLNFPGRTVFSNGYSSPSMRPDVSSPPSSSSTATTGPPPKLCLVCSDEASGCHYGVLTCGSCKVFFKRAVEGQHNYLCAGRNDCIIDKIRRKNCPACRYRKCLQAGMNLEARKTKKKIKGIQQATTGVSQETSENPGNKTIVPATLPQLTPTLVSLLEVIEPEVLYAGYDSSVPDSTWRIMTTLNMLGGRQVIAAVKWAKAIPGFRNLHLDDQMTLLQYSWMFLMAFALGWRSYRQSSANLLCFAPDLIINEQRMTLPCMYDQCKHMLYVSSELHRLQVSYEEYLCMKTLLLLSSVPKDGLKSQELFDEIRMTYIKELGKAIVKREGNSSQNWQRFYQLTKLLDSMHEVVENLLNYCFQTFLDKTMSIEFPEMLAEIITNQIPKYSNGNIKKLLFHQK
Source text: GRFP: Glucocorticoid Receptor Binding
The glucocorticoid receptor fluorescence polarization ligand binding (GRFP) assay is used to evaluate direct binding of testing compounds to full-length glucocorticoid (GR) protein. Reagents for this assay are purchased from Invitrogen in a test kit. A fluorescent labeled GR ligand is used as a fluorescent tracer and test compounds compete with the fluorescent tracer for GR binding. The change in polarization value in the presence of test compounds is due to binding of test compounds to (GR) and is used to determine IC50 and relative binding affinity of test compounds for GR.

[2] = tested on: Mouse Collagen-Induced Arthritis (mCIA); assay: Therapeutic mouse collagen-induced arthritis (mCIA) model; format: in vivo, Male DBA/J mice; details: Mus musculus, mice, dosing day 34 through day 49; for ED80: read-out: Therapeutic mCIA (ED80 dose)
Source text: Mouse Collagen-induced arthritis is a commonly used chronic, preclinical model of rheumatoid arthritis in which joint swelling and bone destruction occur following immunization with type II collagen. Reduction of disease incidence and severity has been shown previously to be predictive of disease-modification and signs and symptoms mitigation, respectively, in a clinical setting.
In the therapeutic mCIA model, induction of disease incidence and severity was synchronized via LPS stimulation. Male DBA/J mice were immunized with 100 ug of bovine type II collagen (bCII) on day 0. All mice received an intraperitoneal injection of 20 μg of LPS on day 28 and disease was allowed to develop through day 34. At day 34, all mice had disease (incidence=100%) with an average severity score of seven. Dosing of compounds was initiated in the therapeutic mode on day 34 and continued through day 49. Different treatments were compared by measuring the decrease in incidence (i.e., resolution of disease) and the decrease in severity of paw swelling over time.

LPS-induced serum TNFα = LPS-induced serum TNFα suppression, 28-day repeat dose mouse model; format: in vivo, Swiss Webster female mice; details: Mus musculus, 672 h, mice, oral gavage 28 days
Description: (§1) The compounds were weighed and suspended in a vehicle of 0.5% methylcellulose/0.025% tween 20 (Sigma-Aldrich, St. Louis, Mo.). Compound suspensions were homogenized using a Polytron PT-3100 tissue homogenizer to create a very fine suspension and were then sonicated for 10 minutes using a water bath sonicator. Aliquots of each suspension were made for daily dosing at 0.2 ml/dose. Swiss Webster female mice, 10-12 weeks old, 28-29 grams, (Taconic, Germantown, N.Y.) were used in accordance with the guidelines of the Institutional Animal Care and Use Committee and in accordance with NIH guidelines on laboratory animal welfare. Mice were acclimated in the Pfizer animal facility for three to seven days prior to being utilized in a study. […] Each treatment group contained 5-10 mice. To establish a dosing regimen for the studies, a pilot pharmacodynamic time course experiment was conducted to quantify TNFα repression after a single ED80 dose.
(§2) Body weights were measured on the first and last day of each experiment. Blood samples were obtained after three weeks of dosing for a steady-state pharmacokinetic (PK) analysis. To assess compound effects on LPS-induced TNFα, all mice received an intraperitoneal injection of LPS (Salmonella typhosa, L-7895; Sigma-Aldrich, St. Louis) 2.5 hr after the last dose on day 28. Mice were sacrificed 90 minutes after LPS administration. Serum samples were quantified for osteocalcin and TNFα using the multiplex assays (Linco Research, Inc, St. Charles, Mo.; Luminex 100, Austin, Tex.). Samples were diluted 1:20 and the assay was run according to manufacturer's instructions. The osteocalcin standard was purchased separately (Biomedical Technologies Inc., Stoughton, Mass.). Mice were fasted for 4 hours before serum was collected for TNFα, and osteocalcin levels. For each experiment, outliers were detected by calculating the number of standard deviations from the mean of the group. If the value being examined was more than 2.5 standard deviations from the mean, it was excluded from the rest of the calculations.
(§3) The individual mouse percent inhibition values were fit to a four-parameter logistic model using the dose mean for each group.
(§4) ED50 and ED80 values were obtained for the various endpoints using a four-parameter logistic fit. For compounds which were tested multiple times, ED50 and ED80 values were obtained using four-parameter logistic fits of the combined data from multiple experiments.

Serum osteocalcin = Serum osteocalcin suppression, 28-day repeat dose mouse model; format: in vivo, Swiss Webster female mice; details: mice, oral gavage 28 days, serum osteocalcin
Description: as §1, §2, §3, §4

[3] = Solubility and intrinsic dissolution; format: physicochemical; details: compared with Example 1
[4] = tested on: IL-6 levels in Human A549 lung epithelial cells; assay: IL-1β-stimulated IL-6 in A549 cells; format: cell-based; details: additional results (footnote a)
Description: IL-6 IC50 and % Inhibition
Human A549 lung epithelial cells (American Type Culture Collection, Rockville, Md.) were cultured in Kaighn's F-12K medium with penicillin-streptomycin (10 U/mL) and 10% heat-inactivated fetal bovine serum (all from Invitrogen, Grand Island, N.Y.). A549 cells were plated at a density of 30,000 cells/well in 96-well plates and incubated overnight at 37° C. and with 5% CO2. The cells were serum-starved by replacing the growth medium with serum-free Kaighn's F-12K medium with penicillin-streptomycin (10 U/mL) and, again, incubating overnight at 37° C. and with 5% CO2. On the third day, the medium was replaced with fresh serum-free medium and the cells were incubated with or without compound (vehicle was DMSO at 0.1% maximum concentration) for approximately 1 hour and then stimulated with 1 ng/mL recombinant human IL-1β (R&D Systems, Minneapolis, Minn.) for 20 hours at 37° C. and with 5% CO2. Cell supernatants were collected for determination of IL-6 levels using MSD (Meso Scale Discovery, Gaithersburg, Md.) 96-well Single Spot plates as per the manufacturer's instructions. Plates were read with an MSD Sector Imager 6000. […] Vehicle was used to define the 0% inhibition control. Percent inhibition for each compound concentration, relative to these controls, was calculated using Excel (Microsoft, Redmond, Wash.). […]

SMILES: Cc1ncccc1CNC(=O)c1ccc2c(c1)CC[C@@H]1C[C@@](O)(CCC(F)(F)F)CC[C@@]21Cc1ccccc1 [Comparator A, (4βS,7S,8αR)-4β-benzyl-7-hydroxy-N-((2-methylpyridin-3-yl)methyl)-7-(3,3,3-trifluoropropyl)-4β,5,6,7,8,8α,9,10-octahydrophenanthrene-2-carboxamide]
IC50 [1]: 7.1 nM

SMILES: Cc1cnc(NC(=O)c2ccc3c(c2)CC[C@@H]2C[C@@](O)(C(F)(F)F)CC[C@@]32Cc2ccccc2)c(C)n1 [Comparator B, (4βS,7R,8αR)-4β-benzyl-N-(3,5-dimethylpyrazin-2-yl)-7-hydroxy-7-(trifluoromethyl)-4β,5,6,7,8,8α,9,10-octahydrophenanthrene-2-carboxamide]
IC50 [1]: 0.35 nM | ED80 [2]: > 10 mg/kg | ED80 (LPS-induced serum TNFα): 2.91 mg/kg | Osteocalcin Suppression (ED80 dose) (Serum osteocalcin): >10 mg/kg

SMILES: Cc1ncccc1NC(=O)c1ccc2c(c1)CC[C@@H]1C[C@@](O)(CCC(F)(F)F)CC[C@@]21Cc1ccccc1 [Comparator C, (4βS,7S,8αR)-4β-benzyl-7-hydroxy-N-(2-methylpyridin-3-yl)-7-(3,3,3-trifluoropropyl)-4β,5,6,7,8,8α,9,10-octahydrophenanthrene-2-carboxamide]
IC50 [1]: 1.22 nM | ED80 [2]: > 10 mg/kg | ED80 (LPS-induced serum TNFα): 1.33 mg/kg

SMILES: Cc1ccncc1NC(=O)c1ccc2c(c1)CC[C@@H]1C[C@@](O)(C(F)(F)F)CC[C@@]21Cc1ccccc1 [Comparator D, (4βS,7R,8αR)-4β-benzyl-7-hydroxy-N-(4-methylpyridin-3-yl)-7-(trifluoromethyl)-4β,5,5,7,8,8α,9,10-octahydrophenanthrene-2-carboxamide]
IC50 [1]: 2.06 nM | ED80 (LPS-induced serum TNFα): > 20 mg/kg

SMILES: Cc1ncccc1NC(=O)c1ccc2c(c1)C(=O)C[C@@H]1C[C@@](O)(C(F)(F)F)CC[C@@]21Cc1ccccc1 [Comparator E]
IC50 [1]: 1.18 nM | ED80 [2]: 2.6 mg/kg | ED80 (LPS-induced serum TNFα): 1.18 mg/kg | Osteocalcin Suppression (ED80 dose) (Serum osteocalcin): 1.71 mg/kg

SMILES: Cc1ncccc1NC(=O)c1ccc2c(c1)[C@H](O)C[C@@H]1C[C@@](O)(C(F)(F)F)CC[C@@]21Cc1ccccc1 [Comparator F, (4βS,7R,8αR,10R)-4β-benzyl-7,10-dihydroxy-N-(2-methylpyridin-3-yl)-7-(trifluoromethyl)-4β,5,6,7,8,8α,9,10-octahydrophenanthrene-2-carboxamide]
IC50 [1]: 1.9 nM | ED80 [2]: > 10 mg/kg | ED80 (LPS-induced serum TNFα): 5.67 mg/kg | Osteocalcin Suppression (ED80 dose) (Serum osteocalcin): >10 mg/kg

SMILES: Cc1c(NC(=O)c2ccc3c(c2)CC[C@@H]2C[C@@](O)(C(F)(F)F)CC[C@@]32Cc2ccccc2)ccc[n+]1[O-] [Comparator G]
ED50 ([2]; read-out: Therapeutic mCIA (ED50 dose)): 0.6 mg/kg | ED80 [2]: 3 mg/kg | ED80 (LPS-induced serum TNFα): 3.33 mg/kg | Osteocalcin Suppression (ED80 dose) (Serum osteocalcin): 7.27 mg/kg

SMILES: Cc1ncccc1NC(=O)c1ccc2c(c1)CC[C@@H]1C[C@@](O)(C(F)F)CC[C@@]21Cc1ccccc1 [Comparator H, (4βS,7R,8αR)-4-benzyl-7-(difluoromethyl)-7-hydroxy-N-(2-methylpyridin-3-yl)-4β,5,6,7,8,8α,9,10 octahydrophenanthrene-2-carboxamide]
IC50 [1]: 8.03 nM | ED80 (LPS-induced serum TNFα): 0.72 mg/kg

IC50 [1]: 9.12 nM | Osteocalcin Suppression (ED80 dose) (Serum osteocalcin): >20 mg/kg
SMILES: Cc1ncccc1NC(=O)c1ccc2c(c1)C=C[C@@H]1C[C@@](O)(C(F)(F)F)CC[C@@]21Cc1ccccc1 [Comparator I, (4βS,7R,8αR)-4β-benzyl-7-hydroxy-N-(2-methylpyridin-3-yl)-7-(trifluoromethyl)-4β,5,6,7,8,8α-hexahydrophenanthrene-2-carboxamide]
ED80 [2]: > 20 mg/kg | ED80 (LPS-induced serum TNFα): 5.45 mg/kg

SMILES: Cc1ncc(NC(=O)c2ccc3c(c2)CC[C@@H]2C[C@@](O)(CCC(F)(F)F)CC[C@@]32Cc2ccccc2)c(C)n1 [Comparator J]
IC50 [1]: 4.58 nM | ED80 [2]: > 20 mg/kg | ED80 (LPS-induced serum TNFα): 0.79 mg/kg

IC50 [1]: 895 nM
SMILES: Cc1ncccc1NC(=O)c1ccc2c(c1)CC[C@@H]1C[C@@](OC(=O)OCC(C)C)(C(F)(F)F)CC[C@@]21Cc1ccccc1 [Comparator K, (2R,4αS,10αR)-4-benzyl-7-((2-methylpyridin-3-yl)carbamoyl)-2-(trifluoromethyl)-1,2,3,4,4α,9,10,10α-octahydrophenanthren-2-yl isobutyl carbonate]

IC50 [1]: 1.31 nM
SMILES: Cc1ncccc1NC(=O)c1ccc2c(c1)CC[C@@H]1C[C@@](O)(C(F)(F)F)CC[C@@]21Cc1ccccc1 [Example 1 HCL salt]

IC50 [1]: 79 nM | IC50 ([1]; additional results (footnote a)): 42 nM
SMILES: Cc1ncccc1NC(=O)c1ccc2c(c1)CC[C@@H]1C[C@@](OP(=O)(O)O)(C(F)(F)F)CC[C@@]21Cc1ccccc1 [Example 2, (2R,4αS,10αR)-4α-benzyl-7-((2-methylpyridin-3-yl)carbamoyl)-2-(trifluoromethyl)-1,2,3,4,4α,9,10,10α-octahydrophenanthren-2-yl dihydrogen phosphate]
solubility and intrinsic dissolution [3]: enhanced solubility and intrinsic dissolution | IL-6 % Inhibition [4]: 80%
